Data from ChEMBL document CHEMBL1201862, “PubChem BioAssay data set” (2004).
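Method: 48-hour compound exposure of cells in 96-well plates, five concentrations, linear interpolation of endpoints. GI50 is the concentration that inhibits growth by half.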 Activity calls are given as the source filed them. No stated cut-off is given here; in the data, active = GI50 up to about 1.1 µM and inactive = higher.

Tests used:
Experiment in all cases: NCI-60 cell line screen, 48 h
NCI-H23 = system: NCI-H23
NCI-H522 = system: NCI-H522
HOP-92 = system: HOP-92
HL-60 = system: HL-60
HCC 2998 = system: HCC 2998
HT-29 = system: HT-29
M14 = system: M14
SF-268 = system: SF-268
K562 = system: K562
LOX IMVI = system: LOX IMVI
SF-539 = system: SF-539
HCT-15 = system: HCT-15
UACC-257 = system: UACC-257
SW-620 = system: SW-620
EKVX = system: EKVX
HCT-116 = system: HCT-116
A549 = system: A549
T47D = system: T47D
786-0 = system: 786-0
NCI/ADR-RES = system: NCI/ADR-RES

Compound	GI50 (NCI-H23)	GI50 (NCI-H522)	GI50 (HOP-92)	GI50 (HL-60)	GI50 (HCC 2998)	GI50 (HT-29)	GI50 (M14)	GI50 (SF-268)	GI50 (K562)	GI50 (LOX IMVI)	GI50 (SF-539)	GI50 (HCT-15) [µM]	GI50 (UACC-257)	GI50 (SW-620)	GI50 (EKVX)	GI50 (HCT-116)	GI50 (A549)	GI50 (T47D)	GI50 (786-0)	GI50 (NCI/ADR-RES)
C(=N/Nc1ccccn1)/c1cccnc1	75 µM (inactive)	> 100 µM (inactive)	> 100 µM (inactive)	> 100 µM (inactive)	> 100 µM (inactive)	> 100 µM (inactive)	62.7 µM (inactive)	> 100 µM (inactive)	31 µM (inactive)	> 100 µM (inactive)	> 100 µM (inactive)	> 100	89.3 µM (inactive)	> 100 µM (inactive)	49.4 µM (inactive)	> 100 µM (inactive)	> 100 µM (inactive)	> 100 µM (inactive)	> 100 µM (inactive)	> 100 µM (inactive)
C=CCNc1nc2c(s1)C(=O)c1ccccc1C2=O	4.4 µM (inactive)	6.41 µM (inactive)	9.31 µM (inactive)	1.61 µM (inactive)	20.7 µM (inactive)	21.8 µM (inactive)	5.12 µM (inactive)	12.4 µM (inactive)	4.76 µM (inactive)	4.31 µM (inactive)	8.11 µM (inactive)	8.51	2.7 µM (inactive)	12.9 µM (inactive)	15.6 µM (inactive)	3.81 µM (inactive)	6.43 µM (inactive)	14.4 µM (inactive)	14.5 µM (inactive)	15.4 µM (inactive)
CCCCc1ccc(Nc2nc(Cl)c3c(ncn3COCCOC(C)=O)n2)cc1	18.7 µM (inactive)	17.2 µM (inactive)	18.6 µM (inactive)	21.6 µM (inactive)	19.9 µM (inactive)	18.7 µM (inactive)	17.9 µM (inactive)	19.2 µM (inactive)	24.4 µM (inactive)	17.5 µM (inactive)	19 µM (inactive)	16.3	17.1 µM (inactive)	23.1 µM (inactive)	19.8 µM (inactive)	17.3 µM (inactive)	19 µM (inactive)	17.8 µM (inactive)	20.1 µM (inactive)	23.5 µM (inactive)
CC(=O)N1c2ccccc2C23CCN4CC5=CCOC(O)C(C5CC42)C13 (stereo not drawn)	> 100 µM (inactive)	> 100 µM (inactive)	> 100 µM (inactive)	> 100 µM (inactive)	> 100 µM (inactive)	> 100 µM (inactive)	> 100 µM (inactive)	> 100 µM (inactive)	31.9 µM (inactive)	> 100 µM (inactive)	> 100 µM (inactive)	> 100	> 100 µM (inactive)	> 100 µM (inactive)	> 100 µM (inactive)	> 100 µM (inactive)	> 100 µM (inactive)	> 100 µM (inactive)	> 100 µM (inactive)	> 100 µM (inactive)
CCOC(=O)C(C(=S)SC)c1nn2c(=O)cc(C)nc2s1 (stereo not drawn)	20.6 µM (inactive)	21.1 µM (inactive)	21.7 µM (inactive)	18.1 µM (inactive)	25.5 µM (inactive)	21.5 µM (inactive)	15.6 µM (inactive)	17.7 µM (inactive)	18.2 µM (inactive)	15.9 µM (inactive)	18.3 µM (inactive)	20.3	21 µM (inactive)	20.3 µM (inactive)	18.8 µM (inactive)	18.6 µM (inactive)	19.5 µM (inactive)	19 µM (inactive)	20.3 µM (inactive)	24.3 µM (inactive)
CCc1ccccc1N1CCN(C(=O)c2cc(OC)c(OC)c(OC)c2)CC1	0.0557 µM (active)	0.0134 µM (active)	0.0977 µM (active)	0.0233 µM (active)	0.0585 µM (active)	0.0225 µM (active)	0.0135 µM (active)	0.114 µM (active)	0.0235 µM (active)	0.0307 µM (active)	0.0212 µM (active)	0.0259	0.0247 µM (active)	0.0208 µM (active)	1.39 µM (inactive)	0.042 µM (active)	0.0452 µM (active)	17.3 µM (inactive)	< 0.0149 µM (active)	0.0151 µM (active)
CCOC(CCNCC(OCC)OCC)OCC	> 10 µM (inactive)	> 10 µM (inactive)	> 10 µM (inactive)	> 10 µM (inactive)	> 10 µM (inactive)	> 10 µM (inactive)	> 10 µM (inactive)	> 10 µM (inactive)	> 10 µM (inactive)	> 10 µM (inactive)	> 10 µM (inactive)	> 10	> 10 µM (inactive)		> 10 µM (inactive)	> 10 µM (inactive)	> 10 µM (inactive)	> 10 µM (inactive)	> 10 µM (inactive)	> 10 µM (inactive)
Cc1cc2c(cc1C)C(=O)c1ncccc1C2=O	15.6 µM (inactive)	16.7 µM (inactive)	58.6 µM (inactive)	11.2 µM (inactive)	33.4 µM (inactive)	23.3 µM (inactive)	23.6 µM (inactive)	49.3 µM (inactive)	17.5 µM (inactive)	29.4 µM (inactive)	26.5 µM (inactive)	26.5	18.7 µM (inactive)	30.9 µM (inactive)	17.4 µM (inactive)	19.9 µM (inactive)	22.7 µM (inactive)	34.8 µM (inactive)	28.5 µM (inactive)	22.8 µM (inactive)
O=C1C[C@@]23CCC4(CC2=CCC[C@H]3O1)OCCO4	> 100 µM (inactive)	> 100 µM (inactive)	> 100 µM (inactive)	> 100 µM (inactive)	> 100 µM (inactive)	> 100 µM (inactive)	> 100 µM (inactive)	> 100 µM (inactive)	> 100 µM (inactive)	> 100 µM (inactive)	> 100 µM (inactive)	> 100	> 100 µM (inactive)	> 100 µM (inactive)	> 100 µM (inactive)	> 100 µM (inactive)	> 100 µM (inactive)	> 100 µM (inactive)	> 100 µM (inactive)	> 100 µM (inactive)
CN(C)CCCNc1nnc(NCCCN(C)C)c2c(=O)c3sccc3[nH]c12	10.8 µM (inactive)	4.02 µM (inactive)	35.8 µM (inactive)	3.59 µM (inactive)	6.68 µM (inactive)		11.7 µM (inactive)	5.53 µM (inactive)	3.48 µM (inactive)	14 µM (inactive)	5.51 µM (inactive)	6.62	22.4 µM (inactive)	4.56 µM (inactive)	8.91 µM (inactive)	9.46 µM (inactive)	5.41 µM (inactive)	19.4 µM (inactive)	4.59 µM (inactive)	8.15 µM (inactive)
Cc1ccc(S(=O)(=O)[N-]C2C(=O)c3ccccc3C(=O)C2[n+]2cccc(C(N)=O)c2)cc1 (stereo not drawn)	> 100 µM (inactive)	> 100 µM (inactive)	> 100 µM (inactive)	> 100 µM (inactive)	38.5 µM (inactive)	> 100 µM (inactive)	> 100 µM (inactive)	> 100 µM (inactive)	> 100 µM (inactive)	30.7 µM (inactive)	> 100 µM (inactive)	> 100	> 100 µM (inactive)	> 100 µM (inactive)	> 100 µM (inactive)	17.4 µM (inactive)	> 100 µM (inactive)	24 µM (inactive)	30.8 µM (inactive)	> 100 µM (inactive)
COc1cc(OC)c(OC)cc1/C=C/c1nc2ccccc2s1	86.5 µM (inactive)	40.6 µM (inactive)	6.35 µM (inactive)	5.52 µM (inactive)	> 100 µM (inactive)	38.7 µM (inactive)	17.6 µM (inactive)	> 100 µM (inactive)	5.42 µM (inactive)	> 100 µM (inactive)	> 100 µM (inactive)	> 100	> 100 µM (inactive)	> 100 µM (inactive)	69.7 µM (inactive)	25.2 µM (inactive)	> 100 µM (inactive)	8.45 µM (inactive)	> 100 µM (inactive)	> 100 µM (inactive)
CC(CC(C)[C@H]1CCC2[C@H]3C(CC(=O)[C@@]21C)[C@@]1(C)CCC(O)C[C@H]1C[C@@H]3O)C(=O)O (stereo partly drawn)	> 100 µM (inactive)	> 100 µM (inactive)	> 100 µM (inactive)	46.8 µM (inactive)	> 100 µM (inactive)	> 100 µM (inactive)	> 100 µM (inactive)	> 100 µM (inactive)	34.7 µM (inactive)	> 100 µM (inactive)	> 100 µM (inactive)	77.3	> 100 µM (inactive)	87.1 µM (inactive)	> 100 µM (inactive)	> 100 µM (inactive)	> 100 µM (inactive)	> 100 µM (inactive)	> 100 µM (inactive)	> 100 µM (inactive)
C=C1C(=O)OC2CC3(C)CCCC(C)C3=CC12 (stereo not drawn)	6.04 µM (inactive)	1.51 µM (inactive)	2.64 µM (inactive)	0.469 µM (active)	3.79 µM (inactive)	3.3 µM (inactive)	3.56 µM (inactive)	6.92 µM (inactive)	2.35 µM (inactive)	1.57 µM (inactive)	1.35 µM (inactive)	2.1	5.38 µM (inactive)	2.16 µM (inactive)	5.3 µM (inactive)	3.91 µM (inactive)	12.6 µM (inactive)	2.88 µM (inactive)	2.79 µM (inactive)	17.6 µM (inactive)
